Measurements: patent US10710951B2, “Pharmaceutical composition containing verbenone derivative for treating or preventing neurodegenerative disease” (KOREA UNIVERSITY RESEARCH AND BUSINESS FOUNDATION, priority 2012, dated 2020)

What was measured:
[1] = Oxygen radical absorbance capacity (ORAC) assay; parameters: ORAC assay TE25 (trolox equivalents): dose or concentration left out as unconfirmed; details: for ORAC assay TE25 (trolox equivalents): net AUC sample / net AUC trolox
Experimental: An ORAC assay was performed as disclosed in the literature (Huang, D. et al., J. Agric. Food Chem., 53, 1841-56, 2005).
AAPH (60 mM) and fluorescein (50 nM) were prepared in buffer (75 mM phosphate buffer, pH7.4) without a sample or a sample or a standard (Trolox). Each of the samples and the standard was suspended in a solution of 7% RMCD (randomly methylated beta-cyclodextrin) in 50% acetone. RMCD was used to increase the solubility of oil-soluble samples. Each sample was sufficiently mixed with fluorescein solution (66 nM, 190 μl) by shaking for 5 seconds. After incubation at 37° C. for 10 minutes, AAPH (500 mM, 30 μl) was quickly added to each sample, and a decrease in the fluorescence was measured using a fluorescence microplate reader (Ex=485 nm, Em=530 nm; SpectraMax GeminiEM, Molecular Devices, Sunnyvale, Calif.) at 37° C. at 5-min intervals for 9 hours. To quantify the activity of scavenging peroxyl radicals, AUC (area-under-the-curve) was calculated according to the following equation 2, and net AUC was calculated according to the following equation 3, and the TE (trolox equivalents) of each sample was calculated according to the following equation 4 based on a standard curve of net AUC plotted according to an increase in trolox concentration. AUC=(0.5+f1/f0+f2/f0+f3/f0+ . . . +fn−2/f0+fn−1/f0+fn/f0)×5, Equation 2
wherein f0 is the first fluorescence at 0 min and time I. Net AUC=AUCsample−AUCblank. Equation 3 TE(trolox equivalents) of each sample=[netAUCsample […]]/[net AUCtrolox […]]. Equation 4
(§1) The antioxidant activities of the verbenone derivatives of the present invention were measured by the following two different chemical reactions: (1) a single electron transfer-based assay that is a […] [DPPH] assay that measures a decrease in DPPH acting as a free radical generator and a termination probe; and (2) a hydrogen atom transfer assay that is an oxygen radical absorbance capacity [[…]] assay that measures the competitive reaction kinetics of a peroxyl radical generator (AAPH; 2,2′-azobis-(2-methylpropionamide)-dihydrochloride) and each sample acting as an antioxidant for oxidizable fluorescent probe (fluorescein).

cortical neurons [2] = experiment: NMDA-induced excitotoxicity, LDH release; format: cell-based, SD rats; parameters: dose or concentration left out as unconfirmed; details: cultured cortical neuronal cells; sample 30 min before NMDA; lower than MK-801; FIG. 2
Experimental: (§2) Cortical neurons (5×10^5 cells/ml) were isolated from fetal SD rats (16-17 days). Specifically, brain cortex was cut, and cells were isolated from the tissue by repeated trituration using a Pasteur pipette in buffer (Hanks' Balanced Salt Solution, HBSS). The cell suspension (1.8×10^3 cells/mm^2) was dispensed on a plate pretreated with poly-D-lysine ([…])/laminin ([…]). The cells were placed in 10% FBS-containing NBM medium, and incubated in a […]/5% CO2 atmosphere at 37° C. After 15-16 days of the incubation, the experiment was performed.
After incubation on the plate for 15-18 days, the cortical neurons were exposed to NMDA ([…]) in a solution (Mg^2+-free Earle's balanced salt solution (EBSS); containing 1.8 mM CaCl2 and 10 mM glycine) for 10 minutes. After exposure, the cells were washed with MgSO4-containing EBSS solution, and incubated in 25 mmol/L glucose-containing DMEM medium in a 5% CO2 incubator at 37° C. 30 Minutes before treatment with NMDA, the cells were treated with each sample […].
(§3) In order to measure cell injury or cell death, the amount of LDH released into the medium was measured using a cell viability measurement kit (Sigma-Aldrich, St. Louis, Mo.). Cell viability was expressed as the percentage of LDH relative to the total cellular LDH level measured in sister cultures lysed by freezing-thawing after the experiment.

cortical neurons [3] = experiment: Intracellular levels (DCF fluorescence) of reactive oxygen species after OGD/reoxygenation; format: cell-based, SD rats; details: FIG. 3
Experimental: In order to examine the direct radical scavenging activities of the samples, at 1 hour after reoxygenation, the cells were stained with the fluorescent probe H2DCF-DA (2,7-dihydroichlorofluorescein diacetate) that is widely used to measure intracellular oxidative stress. After 2 hours, the cells were washed in EBSS buffer (containing 25 mM glucose, 1.8 mM CaCal2, 1.2 mM MgSO4 and 2.5 mM probenecid (pH7.4)), and the fluorescence of DCF was measured with a fluorescence microplate reader (SpectraMax GeminiEM; Ex=485 nm, Em=530 nm) or a fluorescence microscope (DM IL HC Fluo, Leica, Wetzlar, Germany) equipped with a digital camera (DFC420C, Leica, Wetzlar Germany). The fluorescence intensity was compensated with autofluorescence (i.e., the fluorescence of cells not loaded with H2DCF-DA).

[4] = DPPH assay (ability to scavenge nitrogen radicals); parameters: DPPH assay % inhibition: concentration or dose not given beside the values
Experimental: The samples were mixed with DPPH (23.6 μg/ml, in ethanol), and incubated in dark at 37° C. for 30 minutes. The DPPH absorbance reduced by each sample was measured at 517 nm. Vitamin C (Sigma-Aldrich, St. Louis, Mo.) was used as a control, and the DPPH inhibition value (%) was calculated using the following equation: Scavenging activity (%)=[Absmax(Vit.C)−Abssample]/[Absmax(Vit.C)−Absmin(Vit.C)]×100. Equation 1
as §1

cortical neurons [5] = experiment: Oxygen-glucose deprivation (OGD)/reoxygenation neuronal injury, LDH release; format: cell-based; details: rat cortical neurons, FIG. 1
Experimental: as §2
In order to induce hypoxic-ischemic symptoms in vitro, the incubated cells were placed in an anoxic chamber (partial oxygen pressure <2 mmHg). The cells were incubated glucose-free DMEM while being bubbled with an anaerobic gas mixture (95% N2 and 5% CO2) for 30 minutes to remove residual oxygen, and were incubated at 37° C. for 90 minutes for oxygen deprivation. After 90 minutes, the exposed solution was replaced with 25 mmol/L glucose-containing DMEM medium to stop the OGD reaction, and the cells were restored to normal oxygen conditions. Control cells not exposed to OGD were incubated in glucose (25 mmol/L)-containing DMEM medium provided with an aerobic gas mixture (95% air and 5% CO2). The cells were treated with each sample 30 minutes before, and during the entire period of OGD/re-oxygenation.
as §3

focal ischemia = details: rats and gerbils; literature; cited from earlier work

Q: Which “ORAC assay Net AUC” value [1] does the source give for `CC1(C)[C@@H]2C[C@H]1C(C=Cc1ccc(-n3cccc3)cc1)=CC2=O` [Compound 4e, (1S,5R)-4-(4-(1H-pyrrol-1-yl)styryl)-6,6-dimethylbicyclo[3.1.1]hept-3-en-2-one] here?
A: The value was 98.31 ± 0.48.

Q: What about the “peroxyl radical scavenging activity in ORAC assay (in words)” value ([1]; compared to trolox) of the same compound?
A: The value was “strong peroxyl radical scavenging activities compared to trolox”.

Q: What about the “ORAC assay TE25 (trolox equivalents)” value [1] of the same compound?
A: The value was 2.19 ± 0.01.

Q: And the melting point?
A: The melting point was 146 to 148 °C.

Q: Which “ORAC assay Net AUC” value [1] does the source give for `CC1(C)[C@@H]2C[C@H]1C(C=Cc1ccc(O)c(O)c1)=CC2=O` [Compound 3c, (1S,5R)-4-(3,4-dihydroxystyryl)-6,6-dimethylbicyclo[3.1.1]hept-3-en-2-one] here?
A: Its value is 131.29 ± 11.97.

Q: What about the “ORAC assay TE25 (trolox equivalents)” value [1] of the same compound?
A: The value was 3.11 ± 0.11.

Q: What about the NMDA-induced neuronal injury (cortical neurons [2]) of the same compound?
A: Its NMDA-induced neuronal injury is “significantly reduced NMDA-induced neuronal injury”.

Q: What about the “OGD-induced intracellular oxidative stress (DCF fluorescence)” value (cortical neurons [3]) of the same compound?
A: Its value is “reduced OGD-induced intracellular oxidative stress”.

Q: What about the “DPPH scavenging activity (in words)” value ([4]; compared to vitamin C at the same concentration) of the same compound?
A: The value was “stronger scavenging activity compared to vitamin C”.

Q: What about the “DPPH assay % inhibition” value ([4]; relative to vitamin C (Equation 1)) of the same compound?
A: The value was 91.62 ± 3.27%.

Q: What about the “neuronal injury induced by OGD (LDH release)” value (cortical neurons [5]; OGD/reoxygenation, comparable to MK801) of the same compound?
A: Its value is “significantly reduced neuronal injury”.

Q: What about the cytotoxicity (cortical neurons [5]) of the same compound?
A: Its cytotoxicity is “showed no cytotoxicity”.

Q: Which “time of administration after onset of focal ischemia giving a neuron protection effect” value (focal ischemia) does the source give for `C[C@]12N[C@H](Cc3ccccc31)c1ccccc12` [MK-801] here?
A: The value was at most 1 h.
